Assay [1] relates to split dopamine aptamer (aptamer1 + aptamer2) (DNA, aptamer) TTCGCAGGTGTGGAGTGACGTCG/CGACGCCAGTTTGAAGGTTCG
Briefly: organic electrochemical transistor gate potential shift. The following applies: 10 mM Tris; 0.5 μM aptamer2; highest concentration 10 μM; shift under 15 mV or reversed.

For assay [2] the test system is unchanged. Briefly: square wave voltammetry (amperometric aptasensor). The following applies: 10 mM Tris; 0.5 μM aptamer2; highest concentration 50 μM.
Assay [3] shares this test system. Put plainly: square wave voltammetry, Langmuir fit (amperometric aptasensor). As to conditions: 10 mM Tris; 0.5 μM aptamer2; aptamer1 on gold; apparent (transducer-dependent).
For assay [4] the test system is unchanged. Briefly: organic electrochemical transistor gate potential shift, Langmuir fit. As to conditions: 10 mM Tris; 0.5 μM aptamer2; aptamer1 on gold gate; apparent (transducer-dependent).

Turning to `NCCCC(=O)O`, the binding result in assay [1] and in assay [2] was “no” throughout.

Consider `NCCc1ccc(O)c(O)c1`, for which the KD in assay [3] turned out to be 5 µM; in assay [4], 7 pM.

Consider `N[C@@H](CCC(=O)O)C(=O)O`, for which the binding result in assay [1] and in assay [2] was “no” throughout.

For `O=C1O[C@H]([C@@H](O)CO)C(O)=C1O`, the binding result in assay [1] and in assay [2] was “no” in each case.

`O=c1[nH]c(=O)c2[nH]c(=O)[nH]c2[nH]1`: the binding result in assay [1] and in assay [2] was “no” throughout.
